Measurements taken from patent US20240423973A1, “COMPOUNDS, PHARMACEUTICAL COMPOSITIONS, AND METHODS FOR THE TREATMENT, PREVENTION, OR MANAGEMENT OF HYPERPROLIFERATIVE DISORDERS” (VINCERX PHARMA GMBH, priority 2021, published 2024).
Structures can show the parent of a compound that is named as a salt.

Tests used:
Assay in all cases: Cytotoxicity in vitro in the presence and absence of elastase (MTT assay)
SUM149 = format: cell-based; settings: SUM149 cells, 72 h
Description: (§1) Cultivation of cells was performed according to standard procedures with the media recommended by the provider. The cells, in a total volume of 100 μL, were seeded in a 96-well plate with a white bottom (#3610). After a 24 h incubation period at 37° C. and 5% CO2, the medium was exchanged by adding 90 μL fresh medium. The treatment started by adding the test compound in 10 μL of culture medium to the cells in triplicates. Concentrations ranging from 10^−5 M to 10^−13 M were chosen. Two identically treated sets of samples were prepared. One set was treated with the test compound alone, whereas to the second set the compound and 10 nM elastase was added followed by a 72 h incubation period at 37° C. and 5% CO2. The proliferation was detected using the MTT assay (ATCC). At the end of the incubation period the MTT reagent was added to all samples for 4h. Lysis of the cells followed by addition of the detergent was done overnight. The formed dye was detected at 570 nm. The proliferation of untreated but otherwise identically handled cells was define as the […].

NCI H292 = format: cell-based, human; settings: NCI H292 cells, 72 h
Description: as §1

HT29 = format: cell-based, human; settings: HT29 cells, 72 h
Description: as §1

786-O = format: cell-based, human; settings: 786-O cells, 72 h
Description: as §1

Row | Structure (SMILES) | IC50 (SUM149; compound alone (no elastase)) [nM] | IC50 (SUM149; with 10 nM elastase) [nM] | IC50 (NCI H292; compound alone (no elastase)) [nM] | IC50 (NCI H292; with 10 nM elastase) [nM] | IC50 (HT29; compound alone (no elastase)) [nM] | IC50 (HT29; with 10 nM elastase) [nM] | IC50 (786-O; compound alone (no elastase)) [nM] | IC50 (786-O; with 10 nM elastase) [nM]
1 | CCCNC(=O)Nc1cccc(S(=O)(=O)Nc2cccc([C@@H](CC(=O)O)NC(=O)Nc3ccc(NC(=O)NCCN(C)CCN(C)CCN(C)CC(=O)NCC(=O)N4CCC[C@H]4C(=O)N[C@H](C(=O)O[C@]4(CC)C(=O)OCc5c4cc4n(c5=O)Cc5c-4nc4ccccc4c5CC)C(C)C)cc3)c2)c1 [Compound B2, (4S)-4,11-diethyl-3,14-dioxo-3,4,12,14-tetrahydro-1H-pyrano[3′,4′:6,7]indolizino[1,2-b]quinolin-4-yl N-{2-[{2-[{2-[({4-[({(1R)-2-carboxy-1-[3-({3-[(propylcarbamoyl)amino]benzene-1-sulfonyl}amino)phenyl]ethyl}carbamoyl)amino]phenyl}carbamoyl)amino]ethyl}(methyl)amino]ethyl}(methyl)amino]ethyl}-N-methylglycylglycyl-L-prolyl-L-valinate] | 0.1 to 1 | < 0.01 | 1.1 to 10 | < 0.01 | 10 to 100 | < 0.01 | 1.1 to 10 | < 0.01
2 | CCCNC(=O)Cc1cccc(S(=O)(=O)Nc2cccc([C@H](CC(=O)O)NC(=O)Nc3ccc(NC(=O)NCCOCCOCCOCCC(=O)N[C@@H](CCCCNC(=O)CCOCCOCCOCCNC(=O)Nc4ccc(NC(=O)N[C@@H](CC(=O)O)c5cccc(NS(=O)(=O)c6cccc(NC(=O)NCCC)c6)c5)cc4)C(=O)NCCN(C)CCN(C)CCN(C)CC(=O)N[C@@H](CC(N)=O)C(=O)N4CCC[C@H]4C(=O)N[C@H](C(=O)O[C@]4(CC)C(=O)OCc5c4cc4n(c5=O)Cc5c-4nc4ccccc4c5CC)C(C)C)cc3)c2)c1 [Compound A6] | 1.1 to 10 | 0.01 to 0.1 | 1.1 to 10 | 0.1 to 1 | 10 to 100 | 0.1 to 1 | 10 to 100 | 0.1 to 1
3 | CCCNC(=O)Nc1cccc(S(=O)(=O)Nc2cccc([C@@H](CC(=O)OCCCCN)NC(=O)Nc3ccc(NC(=O)NCCOCCOCCOCCC(=O)N[C@@H](CC(=O)OCCCCN)C(=O)N4CCC[C@H]4C(=O)N[C@H](C(=O)O[C@]4(CC)C(=O)OCc5c4cc4n(c5=O)Cc5c-4nc4ccccc4c5CC)C(C)C)cc3)c2)c1 [Compound C7] | 1.1 to 10 | < 0.01 | 1.1 to 10 | 0.01 to 0.1 | > 100 | 0.1 to 1 | 10 to 100 | 0.1 to 1
4 | CCCNC(=O)Nc1cccc(S(=O)(=O)Nc2cccc([C@@H](CC(=O)O)NC(=O)Nc3ccc(NC(=O)NCCCCN(C)CCN(C)CCN(C)CC(=O)N[C@@H](CCCCNC(=O)CN(C)CCN(C)CCN(C)CCNC(=O)Nc4ccc(NC(=O)N[C@H](CC(=O)O)c5cccc(NS(=O)(=O)c6cccc(NC(=O)NCCC)c6)c5)cc4)C(=O)NCCN(C)CCN(C)CCN(C)CC(=O)N[C@@H](CC(N)=O)C(=O)N4CCC[C@H]4C(=O)N[C@H](C(=O)O[C@]4(CC)C(=O)OCc5c4cc4n(c5=O)Cc5c-4nc4ccccc4c5CC)C(C)C)cc3)c2)c1 [Compound A7] | 1.1 to 10 | 0.1 to 1 | 1.1 to 10 | 0.1 to 1 | 10 to 100 | 0.1 to 1 | 10 to 100 | 0.1 to 1
5 | CCCNC(=O)Nc1cccc(S(=O)(=O)Nc2cccc([C@@H](CC(=O)O)NC(=O)Nc3ccc(NC(=O)NCCOCCOCCOCCC(=O)N[C@@H](CC(=O)OCC[N+](C)(C)C)C(=O)N4CCC[C@H]4C(=O)N[C@H](C(=O)O[C@]4(CC)C(=O)OCc5c4cc4n(c5=O)Cc5c-4nc4ccccc4c5CC)C(C)C)cc3)c2)c1 [Compound C1, trifluoroacetate] | 10 to 100 | 0.01 to 0.1 | 10 to 100 | 0.01 to 0.1 | 10 to 100 | 0.01 to 0.1 | 10 to 100 | 0.01 to 0.1
6 | CCCNC(=O)Nc1cccc(S(=O)(=O)Nc2cccc([C@@H](CC(=O)O)NC(=O)Nc3ccc(NC(=O)NCCCC[C@H](NC(=O)Nc4ccc(NC(=O)N[C@H](CC(=O)O)c5cccc(NS(=O)(=O)c6cccc(NC(=O)NCCC)c6)c5)cc4)C(=O)NCCOCCOCCOCCC(=O)N[C@@H](CC(=O)O)C(=O)N4CCC[C@H]4C(=O)N[C@H](C(=O)O[C@]4(CC)C(=O)OCc5c4cc4n(c5=O)Cc5c-4nc4ccccc4c5CC)C(C)C)cc3)c2)c1 [Compound A1, Trisodium (4S)-4,11-diethyl-3,14-dioxo-3,4,12,14-tetrahydro-1H-pyrano[3′,4′:6,7]indolizino [1,2-b]quinoline-4-yl 1-[(2S)-15-{[N^2,N^6-bis({4-[({(1R)-2-carboxylato-1-[3-({3-[(propylcarbamoyl)amino]benzene-1-sulfonyl}amino)phenyl]ethyl}carbamoyl)amino]phenyl}carbamoyl)-L-lysyl]amino}-2-(carboxylatomethyl)-4-oxo-7,10,13-trioxa-3-azapentadecanan-1-oyl]-L-prolyl-L-valinate] | 10 to 100 | 0.01 to 0.1 | 10 to 100 | 0.1 to 1 | > 100 | 0.01 to 0.1 | 10 to 100 | 0.1 to 1
7 | CCCNC(=O)Nc1cccc(S(=O)(=O)Nc2cccc([C@@H](CC(=O)O)N(C(=O)NC(N)=O)c3ccc(NCCCCOC(=O)C[C@H](NC(=O)CCOCCOCCOCCNc4ccc(N(C(=O)NC(N)=O)[C@H](CC(=O)O)c5cccc(NS(=O)(=O)c6cccc(NC(=O)NCCC)c6)c5)cc4)C(=O)N4CCC[C@H]4C(=O)N[C@H](C(=O)O[C@]4(CC)C(=O)OCc5c4cc4n(c5=O)Cc5c-4nc4ccccc4c5CC)C(C)C)cc3)c2)c1 [Compound C4] | 1.1 to 10 | 0.01 to 0.1 | 1.1 to 10 | 0.01 to 0.1 | > 100 | 0.01 to 0.1 | 10 to 100 | 0.01 to 0.1
8 | CCCNC(=O)Nc1cccc(S(=O)(=O)Nc2cccc([C@@H](CC(=O)O)NC(=O)Nc3ccc(NC(=O)NCCOCCOCCOCCC(=O)N[C@@H](CC(=O)OCCCCN(C)C)C(=O)N4CCC[C@H]4C(=O)N[C@H](C(=O)O[C@]4(CC)C(=O)OCc5c4cc4n(c5=O)Cc5c-4nc4ccccc4c5CC)C(C)C)cc3)c2)c1 [Compound C6, sodium (3R)-3-[({4-[({(10S)-10-[(2S)-2-{[(2S)-1-{[(4S)-4,11-diethyl-3,14-dioxo-3,4,12,14-tetrahydro-1H-pyrano[3′,4′:6,7]indolizino[1,2-b]quinolin-4-yl]oxy}-3-methyl-1-oxobutan-2-yl]carbamoyl}pyrrolidine-1-carbonyl]-2-methyl-8,12-dioxo-7,15,18,21-tetraoxa-2,11-diazatricosan-23-yl}carbamoyl)amino]phenyl}carbamoyl)amino]-3-[3-({3-[(propylcarbamoyl)amino]benzene-1-sulfonyl}amino)phenyl]propanoate] | 10 to 100 | 0.01 to 0.1 | 10 to 100 | 0.1 to 1 | 10 to 100 | 0.1 to 1 | 10 to 100 | 0.1 to 1
9 | CCCNC(=O)Nc1cccc(S(=O)(=O)Nc2cccc([C@@H](CC(=O)O)NC(=O)Nc3ccc(NC(=O)NCCN(C)CCN(C)CCN(C)CC(=O)NCCN(C)CCN(C)CCN(C)CC(=O)N[C@@H](CC(N)=O)C(=O)N4CCC[C@H]4C(=O)N[C@H](C(=O)O[C@]4(CC)C(=O)OCc5c4cc4n(c5=O)Cc5c-4nc4ccccc4c5CC)C(C)C)cc3)c2)c1 [Compound D1] | 10 to 100 | 0.1 to 1 | 10 to 100 | 1.1 to 10 | 10 to 100 | 1.1 to 10 | 10 to 100 | 1.1 to 10
10 | CCCNC(=O)Nc1cccc(S(=O)(=O)Nc2cccc([C@H](CC(=O)O)NC(=O)Nc3ccc(NC(=O)NCCN(C)CCN(C)CCN(C)CC(=O)NCCCC[C@H](NC(=O)CN(C)CCN(C)CCN(C)CCNC(=O)Nc4ccc(NC(=O)N[C@@H](CC(=O)O)c5cccc(NS(=O)(=O)c6cccc(NC(=O)NCCC)c6)c5)cc4)C(=O)NCCN(C)CCN(C)CCN(C)CC(=O)N[C@@H](CC(N)=O)C(=O)N4CCC[C@H]4C(=O)N[C@H](C(=O)O[C@]4(CC)C(=O)OCc5c4cc4n(c5=O)Cc5c-4nc4ccccc4c5CC)C(C)C)cc3)c2)c1 [Compound A8] | 1.1 to 10 | 0.1 to 1 | 1.1 to 10 | 0.1 to 1 | 10 to 100 | 0.1 to 1 | 10 to 100 | 0.1 to 1
11 | CCCNC(=O)Nc1cccc(S(=O)(=O)Nc2cccc([C@H](CC(=O)O)NC(=O)Nc3ccc(NC(=O)NCCN(C)CCN(C)CCN(C)CC(=O)NCCN(C)CCN(C)CCN(C)CC(=O)N[C@@H](CC(N)=O)C(=O)N4CCC[C@H]4C(=O)N[C@H](C(=O)O[C@]4(CC)C(=O)OCc5c4cc4n(c5=O)Cc5c-4nc4ccccc4c5CC)C(C)C)cc3)c2)c1 [Compound D2] | 1.1 to 10 | 0.1 to 1 | 10 to 100 | 0.1 to 1 | 10 to 100 | 0.1 to 1 | 10 to 100 | 0.1 to 1
